This note sets out measurements from patent publication US11596652B2, “Early apoptotic cells for use in treating sepsis” (ENLIVEX THERAPEUTICS LTD., priority 2015, dated 2023).

Where “and” joins values, the source holds several entries; their conditions need not be identical. Identical values can stand only once.

Test [1] has as its system serum cytokines/chemokines. Put plainly: CLP model: serum cytokines/chemokines (Luminex). It is filed as in vivo, mouse. The settings on record: 24 h and 48 h post-CLP. As for the experimental part:
At the indicated times (pre-CLP, 24 h, 48 h, and 72 h post-CLP) ˜500 μl blood was collected in a pre-labeled Eppendorf tube and left for 30 min to allow clotting. The samples were centrifuged at 1800 g (3000 rpm) for 10 min at 4° C., […]. Serum was transferred to a new pre-labeled Eppendorf tube and kept at 4° C. Excess serum was stored at −80° C. Cytokine/chemokine measurement was performed using the Luminex MAGPIX system, and analysis was performed with Milliplex software.
Cytokine/chemokine measurement was performed using the Luminex MAGPIX system, and analysis was performed with Milliplex software. NGAL and Cystatin C were tested by Luminex Multiplex kit (Millipore, MKI2MAG-P4k). All reagents were provided with the kit, and all reagents were prepared according to the manufacturers' protocols. The assays were performed in 96-well plates according to the protocol provided. Plate reading was performed with the Luminex MAGPIX system (Luminex Corp.) and analyzed using Milliplex software (Millipore). […] The raw data was measured as mean fluorescence intensity (MFI) and the concentration of each analyte for each sample was calculated using a 4- or 5-parameter logistic fit curve generated for each analyte from the 7 standards. The lower limit of quantification (LLOQ) was determined using the lowest standard that was at least 3 times above background. […]

Test [2] relates to CLP-induced sepsis. In words: CLP model: organ dysfunction analysis 24 hours post CLP (blood gas, hematology, biochemistry, lung weight, NGAL, cystatin C, C3a, C5a). It is filed as in vivo, mouse. The settings on record: CLP + Ertapenem mice. The method, then: 22-24 h after CLP, mice were weighed, assigned an MSS clinical score and sacrificed for the evaluation of organ dysfunction. Mice were bled through the retro-orbital sinus (venous blood). Naïve mice were bled under isoflurane analgesia; CLP mice were bled without analgesia due to the concern of death. 100 μl blood was collected using heparin-coated capillary tube (Paul Marienfeld, K G, Lauda-Knigshofen, Germany) and immediately tested using STAT profile prime machine (Nova Biomedical, Waltham, Mass., USA). […] was collected into EDTA tubes (MiniCollect, Greiner Bio-One, […], Austria), tubes were rotated to prevent blood clotting and kept at 4° C. Hematology analysis was performed by AML laboratories (Herzliya, Israel). About 500 μl blood was collected to a pre-labeled Eppendorf tube and left for -30 min to allow clotting. The samples were centrifuged at 1800 g (3000 rpm) for 10 min at 4° C., 200 μl serum was transferred to a new pre-labeled Eppendorf tube and kept at 4° C. Excess serum was stored in -80° C. Biochemistry analysis was performed by AML laboratories (Herzliya, Israel). […] Blood was collected to pre-labeled Eppendorf tubes and left for -30 min to allow clotting. Tubes were centrifuged at 1800 g (3000 rpm) for 10 min at 4° C. Serum was transferred to new pre-labeled Eppendorf tubes and stored at -80° C. for Luminex (NGAL and Cystatin C) and ELISA (C3a and C5a) evaluation. Cytokine/chemokine measurement was performed using the Luminex MAGPIX system, and analysis was performed with Milliplex software. NGAL and Cystatin C were tested by Luminex Multiplex kit (Millipore, […]). All reagents were provided with the kit, and all reagents were prepared according to the manufacturers' protocols. The assays were performed in 96-well plates according to the protocol provided. Plate reading was performed with the Luminex MAGPIX system (Luminex Corp.) and analyzed using Milliplex software (Millipore). […] The raw data was measured as mean fluorescence intensity (MFI) and the concentration of each analyte for each sample was calculated using a 4- or 5-parameter logistic fit curve generated for each analyte from the 7 standards. […] The calculation of the LLOQ was performed by subtracting the MFI of the background (diluent) from the MFI of the lowest standard concentration and back-calculating the concentration from the standard curve. Complement components were tested by sandwich ELISA kits: […]038) and C5a (EA100633, OriGene, Rockville, Md., USA). All reagents were provided with the kits and prepared according to the manufacturers' protocols. Assays were performed in 96-well plate according to the protocols provided. OD plate reading was performed with the Infinite F50 (TECAN, Mainnedorf, Switzerland) and analyzed using Magellan software (TECAN). The raw data was measured as 450 nm optical density (OD) and the concentration was calculated using a linear standard curve generated from 6-7 standards. The lower limit of quantification (LLOQ) was determined using the lowest standard. The calculation of the LLOQ was performed by subtracting the OD of the background (diluent) from the OD of the lowest standard concentration and back-calculating the concentration from the standard curve. […] N=40) was assigned with a clinical score, weighed, and blood samples were drawn from the retro-orbital sinus for further analyses. Mice were sacrificed and their lungs were harvested and weighed. To elucidate the effects of CLP on organ dysfunction and its correlation with the MSS clinical score, blood was tested for multiple parameters of organ dysfunction relating to five major systems: cardiovascular, respiratory, renal, hepatic, and hematological, as well as complement and several metabolites (Tables 24A and 24B).

The subject of test [3] is CLP-induced sepsis. In words: Cecal ligation puncture (CLP) mouse model for sepsis: survival, weight and MSS clinical score. It is filed as in vivo. From the text: The cecal ligation puncture (CLP) model has been proposed to more closely replicate the nature and course of clinical sepsis in humans, as compared to other models, and is considered by many researchers as the gold-standard animal model of sepsis. The CLP model involves the ligation of the cecum, usually below the ileocecal junction (to prevent bowel obstruction), and at least one centimeter above the distal end of the cecum, otherwise the sepsis induced is very mild. The length of ligated cecum, defined as the distance from the distal end of the cecum to the ligation point, determines the severity of the sepsis induced. Following ligation, the cecum is perforated, and this step too can be adjusted to modulate the severity of the sepsis ensuing. The perforation of the cecum is followed by the release of fecal material into the peritoneal cavity to induce a polymicrobial infection, which results in an exacerbated immune response. The benefits of the CLP model are its reproducibility and potential to alter the severity of sepsis by controlling needle size, number of cecal punctures, and antibiotics utilization.
The study reported here summarizes the effect of apoptotic cells administered 4 hours after the end of CLP on the development of CLP-induced sepsis in a female C57BL/6 mouse model.
C57BL/6 female mice, 10-13 wk old, were purchased from ENVIGO (Israel). Mice were kept in an SPF animal facility in compliance with institutional IACUC guidelines. Mice were weighed daily and monitored 2-3 times a day for clinical signs and determination of the murine sepsis score (MSS) clinical score (according to Shrum, B., Anantha, R. V., Xu, S. X., Donnelly, M., Haeryfar, S. M. M., McCormick, J. K., and Mele, T. (2014). A robust scoring system to evaluate sepsis severity in an animal model. BMC Res. Notes 7, 1-11). The endpoint was defined as total score of 15 or maximum score in one of the categories in the table.
The procedure was performed as briefly described below: Cecal Ligation and Puncture (CLP)—Experimental method. Briefly, the mice were operated under isoflurane anesthesia machine. Mice were anesthetized by 4% isoflurane in the chamber for about 1 minute, following anesthesia mice were transferred to the operation table and connected to the isoflurane nuzzle with 2% isoflurane. Mice were administered analgesics by sub-cutaneous (S.C.) injection of tramadol 5 mg/kg in 0.1 ml of pre-warmed 0.9% saline solution. After opening the abdomen of the mouse by a midline incision, the cecum was exposed. The cecum was ligated 75% above its distal end with a 4-0 silk suture. Following ligation, the cecum was perforated twice with a 19-gauge needle, using the through-and-through technique (introducing a needle through the cecum). […]

In a further test the test system is Raji cells. In words: Flow cytometry of CD20+ Raji tumor cells in spleen, bone marrow and liver of leukemic mice. It counts as in vivo, mouse. The note with it: for CD20+, Bone marrow / CD20+, Liver / CD20+, Spleen: In Vivo Experiment 023, individual mice. The method, then: Mouse spleen, liver, and bone marrow were collected from sacrificed mice (following deterioration of clinical signs, as defined above) and analyzed by flow-cytometry (FACSCalibur, BD, Franklin Lakes, N.J., USA) for the presence of the Raji tumor (anti-CD20).
Upon sacrifice, following the deterioration of clinical signs as described above, organs of interest were collected for analysis, namely the liver, spleen, and bone-marrow. Cells of these target organs were analyzed by flow cytometry for the presence of human tumor cells (Raji cells are positive for CD20).
Liver, spleen, and bone marrow cells were collected and analyzed by flow cytometry (FACSCalibur, BD) for the presence of human CD20-FITC (Biolegend, Cat. #302206); mIgG1-FITC (Biolegend, Cat. #400110).
Mouse spleen, liver, and bone marrow cells were collected from mice who were sacrificed following clinical deterioration, as defined in the methods) and analyzed by flow cytometry (FACSCalibur, BD) for the presence of human CD20 (FITC).
Expression (%) of CD20 tumor cells in the spleen, bone marrow, and liver, as determine by flow cytometry. Mouse spleen, liver, and bone marrow were collected from sacrificed mice (following clinical deterioration, as defined in methods) and analyzed by flow cytometry (FACSCalibur, BD) for the presence of human CD20 (FITC).

Setting [4] is: CLP mice given ertapenem, Allocetra-OTS 20×10^6 cells IV 4 h after CLP.

One may read the mortality as the share of the test organisms that died. As to `C[C@@H](O)[C@H]1C(=O)N2C(C(=O)O)=C(S[C@@H]3CN[C@H](C(=O)Nc4cccc(C(=O)O)c4)C3)[C@H](C)[C@H]12` [Ertapenem], in test [1], the “cytokine/chemokine release after sepsis induction” value is reported as “no beneficial effects”. In addition, in the test with CLP-induced sepsis [2], the “Basophils, median” value was 0 10^3/μl; the “C3a, median” value stood at 4835 ng/mL; the “C5a, median” value is 1809 ng/mL; the “Chloride, median” value stood at 121.1 mmol/L. In the test on CLP-induced sepsis [2], the “Cholesterol, median” value is 108 mg/dL; the “Eosinophils, median” value is given as 0 10^3/μl; the “Glucose, median” value came to 59.5 mg/dL; the “HCT, median” value was 40.9%. Further, in the test with CLP-induced sepsis [2], the “Hemoglobin, median” value turned out to be 12.4 g/dL; the “Lactate, median” value stood at 13 mg/dL; the “Lymphocytes, median” value is recorded as 1.55 10^3/μl; the “MCH, median” value is reported as 14.9 pg. In the test with CLP-induced sepsis [2], the “MCHC, median” value was determined as 31.2 g/dL; the “MCV, median” value is recorded as 47.9 fL; the “Monocytes, median” value is on record as 0 10^3/μl; the “Neutrophils, median” value is 0.31 10^3/μl. Besides, in the test on CLP-induced sepsis [2], the “Phosphorus, median” value came out at 10.2 mg/dL; the “Platelets, median” value is on record as 99 10^3/μL; the “Potassium, median” value is 6.6 mmol/L; the “RBC, median” value is 8.36 10^6/μL. Further, in the test on CLP-induced sepsis [2], the “Sodium, median” value worked out at 154.1 mmol/L and the “WBC, median” value is given as 1.94 10^3/μL. Further, in the test with CLP-induced sepsis [3] (CLP mice given ertapenem), the “final clinical score (MSS plateau value)” value is on record as 14.37. In the test on CLP-induced sepsis [3] (setting [4]), this compound yielded a median survival of 48 h and a mortality of 93%. In the test with CLP-induced sepsis [3] (Ertapenem with vehicle control, n=15), this compound had a survival rate of 6.6%.
With Rituximab [RtX], in the test on Raji cells (RtX 2 mg/kg), the “CD20+, Bone marrow” value was 0.8% and 3.1% and 3%; the “CD20+, Liver” value is 2.1% and 1.2% and 0.4%; the “CD20+, Spleen” value was 0% (2×) and 0.7%. Also, in the test on Raji cells (RtX 5 mg/kg), the “CD20+, Bone marrow” value is 2.1% and 0.5% and 4.3% and 2.2% and 2.6%; the “CD20+, Liver” value is 1% and 7.3% and 1.4% and 0.9% and 5.7%; the “CD20+, Spleen” value is 0% (3×) and 0.1% (2×). Also, in the test with Raji cells (rtx 2 mg/Kg), the “CD20+ average tumor cell population, Bone Marrow” value is recorded as 2.3 ± 1.3%; the “CD20+ average tumor cell population, Liver” value came out at 1.2 ± 0.8%; the “CD20+ average tumor cell population, Spleen” value came out at 0.2 ± 0.4%. Also, in the test with Raji cells (rtx 5 mg/Kg), the “CD20+ average tumor cell population, Bone Marrow” value was 1.7 ± 1.5%; the “CD20+ average tumor cell population, Liver” value is reported as 3 ± 2.5%; the “CD20+ average tumor cell population, Spleen” value is on record as 0%.
